Tests used:
Candida albican = conditions: in vivo; cited from earlier work
[1] = system: CD4+ and CD8+ lymphocytes; conditions: cited from earlier work
sigma-1 receptor [2] = target: T1, sigma-1 receptor (Homo sapiens, UniProt Q99720); conditions: cited from earlier work
[3] = system: interleukin-1beta and TNF-alpha; conditions: in vivo; cited from earlier work
Calu-3 cells = assay: Cell death and viability of Calu-3 cells (cytotoxicity, no virus); type: cell-based, human
Protocol: 4. Cytotoxicity assays were conducted in parallel, for these no virus was added.
a. Cell viability: was assessed by staining cells with the ViaStain™ Calcein AM/Hoechst/PI Viability Kit (Nexcelom, Cat #CS5-V006-1) per manufacturer's instructions and imaging with the Celígo Imaging Cytometer (Nexcelom). Briefly, live and metabolically active cells were detected using the Calcein AM stain (Ex/Em: 488/520). Dead cells were detected using the propidium iodide stain (PI, Ex/Em: 493/636). Total number of cells were detected using the Hoechst-nuclear stain (Ex/Em: 352/461). Thus, cell viability was assessed by comparing live cells counts (normalized to total cell count) across treatment groups, and cell cytotoxicity was assessed through comparison of dead cell counts (normalized to total cells) across treatment groups.

SARS-CoV-2 [4] = type: cell-based
sigma = conditions: non-selective sigma binding assay; cited from earlier work
[5] = system: Vero E6 cells infected with SARS-CoV-2; assay: Neutral red cytoprotection/cytotoxicity in Vero E6 cells infected with SARS-CoV-2; conditions: Vero E6, dose response
sigma-2 receptor = sigma-2 receptor (Homo sapiens, UniProt Q5BJF2); conditions: cited from earlier work
sigma-1 receptor [6] = target: T1, sigma-1 receptor; conditions: cited from earlier work; remark: listed apart in the source
SARS-CoV-2 [7] = conditions: cited from earlier work

T1 sequence (Q99720 whole entry, species assumed): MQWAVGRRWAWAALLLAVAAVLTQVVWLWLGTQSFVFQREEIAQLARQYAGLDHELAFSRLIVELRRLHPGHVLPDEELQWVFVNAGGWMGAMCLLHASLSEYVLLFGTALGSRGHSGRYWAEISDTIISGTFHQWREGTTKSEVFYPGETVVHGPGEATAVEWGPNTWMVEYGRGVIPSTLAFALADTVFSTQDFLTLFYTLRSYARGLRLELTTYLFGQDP
sigma-2 receptor, sequence (Q5BJF2 whole entry): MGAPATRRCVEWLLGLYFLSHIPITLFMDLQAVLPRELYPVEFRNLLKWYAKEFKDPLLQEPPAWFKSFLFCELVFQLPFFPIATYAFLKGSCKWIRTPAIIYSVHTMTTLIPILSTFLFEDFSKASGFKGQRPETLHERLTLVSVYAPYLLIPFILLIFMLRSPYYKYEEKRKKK

## CCN[C@@H](C)Cc1cccc(C(F)(F)F)c1 (racemic) [dexfenfluramine]
Candida albican
  CD3+ and CD8+ lymphocytes: marked increase
  numbers of NK1.1+ cells: modest increase
[1]; HIV+ or HIV- patients
  number of CD4+ and CD8+ lymphocytes that produced IFN-gamma: increased
[1]; HIV+ patients
  number of CD8+ lymphocytes that produce TNF-alpha: increased
[1]; lymphocytes from HIV+ patients
  amount of IL-2 produced by CD4+ and CD8+ lymphocytes: increased
sigma-1 receptor [2]
  sigma-1 receptor modulation: positive modulators

## CCNC(C)Cc1cccc(C(F)(F)F)c1 (racemic) [fenfluramine, (RS)—N-ethyl-1-[3-(trifluoromethyl)phenyl]propan-2-amine]
[3]
  production of interleukin-1beta and TNF-alpha: suppressed
Calu-3 cells; 20 μg/ml
  cytotoxicity (cell death and viability versus controls): not cytotoxic
Calu-3 cells; 40 μg/ml
  cytotoxicity (cell death and viability versus controls): cytotoxic
SARS-CoV-2 [4]
  average viral replication (mNeonGreen fluorescence normalized to total cell count): about 2·10^3
SARS-CoV-2 [4]; Calu-3 cells, 50 mM fenfluramine as printed, 72 hr
  SARS-CoV-2 viral replication compared with control cells receiving only vehicle: statistically significantly (p<0.0001) lower
sigma
  Ki: 266 nM
[5]; SARS-CoV-2 infected MOI 0.1, FIG. 4B
  neutral red signal, virus infected cells: ~0.2
[5]; uninfected cells, FIG. 4B
  neutral red signal, uninfected cells: ~1.0
sigma-1 receptor [2]
  sigma-1 receptor modulation: positive allosteric modulator

## CCN(CC)CCCC(C)Nc1ccnc2cc(Cl)ccc12 (centres unmarked) [Chloroquine]
sigma-2 receptor
  binding/activity at sigma-2 receptor: low uM activity
sigma-1 receptor [6]
  binding/activity at sigma-1 receptor: mid-nM activity

## O=C(CCCN1CCC(O)(c2ccc(Cl)cc2)CC1)c1ccc(F)cc1 [Haloperidol]
SARS-CoV-2 [7]
  inhibition of SARS-CoV-2 in vitro: inhibit
sigma-2 receptor
  binding/activity at sigma-2 receptor: low nM range

## CCN(CCO)CCCC(C)Nc1ccnc2cc(Cl)ccc12 (centres unmarked) [hydroxy-chloroquine]
SARS-CoV-2 [7]
  inhibition of SARS-CoV-2 in vitro: inhibit
